This is an account of results in ChEMBL document CHEMBL1134960, “Benzotrithiole 2-oxide: a new family of thiol-activated DNA-cleaving functionalities” (Bioorg Med Chem Lett, 2002).

Each structure is given as a SMILES string.

Holding throughout (assay type): functional, cell-based
Assay [1] deals with A498. As to the kind of experiment: Cytotoxicity against human kidney carcinoma cell lines A4982LM.
The subject of assay [2] is HT-29. The assay is described as follows: Cytotoxicity against Colon cancer cell lines HT-29 was determined. To be noted: Homo sapiens.
The nature of assay [3]: Cytotoxicity against Breast cancer cell lines MDA-231 was determined. Conditions: Homo sapiens.
Assay [4] has as its system UMUC3. The assay is described as follows: Cytotoxicity against bladder cancer cell lines UMUC3 was determined. Conditions: Homo sapiens.
In assay [5] the test system is A549. The assay is described as follows: Cytotoxicity against […] cell lines A549 was determined. Conditions: Homo sapiens.
The subject of assay [6] is PC-3. As to the kind of experiment: Cytotoxicity against prostate cancer cell lines PC-3 was determined. To be noted: Homo sapiens.
A short description of assay [7]: Cytotoxicity against […] cancer cell lines PACA2 was determined. To be noted: Homo sapiens.
Assay [8] relates to MCF7. The assay is described as follows: Cytotoxicity against human breast carcinoma cell lines MCF-7.

Broadly, the IC50 is the concentration that gives 50% inhibition. Low readings indicate greater potency in that assay, high ones weaker potency in that assay.

Consider `[O-][S+]1Sc2ccccc2S1`, for which the IC50 in assay [1] was 850 nM; in assay [2], 78.9 nM; in assay [3], 627 nM; in assay [4], 366 nM; in assay [5], 151 nM; in assay [6] it was 62.9 nM. The IC50 in assay [7] was determined as 982 nM; in assay [8] it was 209 nM.

Turning to `COc1cccc2c1C(=O)c1c(O)c3c(c(O)c1C2=O)C[C@@](O)(C(=O)CO)C[C@@H]3O[C@H]1C[C@H](N)[C@H](O)[C@H](C)O1` [DOXORUBICIN], the IC50 amounted to 52.8 nM in assay [1]; 61.8 nM in assay [2]; 1.95 nM in assay [3]; 9.2 nM in assay [4]; 8.7 nM in assay [7].
